# Reference: ChEMBL document CHEMBL3588806, “Generation of Broad-Spectrum Antifungal Drug Candidates from the Natural Product Compound Aureobasidin A” (ACS Med Chem Lett, 2015)
# Active and inactive are the calls of the source. The rule behind the calls is not given here. Starred links: 1 amine or outer side, 2 acyl side, 3 side chain; linkers in the order of their positions; H or OH if unused. Non-standard residues stand in square brackets, D forms with d. Residues, ends and D or L forms follow the SMILES beside them. X2 = CN([C@@H](Cc1cccc(-c2cccc(-c3ccccc3)c2)c1)C(=O)[*:2])[*:1]; X4 = CN([C@@H](Cc1cccc(-c2ccc(-c3ccccc3)cc2)c1)C(=O)[*:2])[*:1]; X12 = CC(=O)Nc1ccc(-c2cccc(C[C@@H](C(=O)[*:2])N(C)[*:1])c2)cc1; X15 = CNC(=O)c1ccc(-c2cccc(C[C@@H](C(=O)[*:2])N(C)[*:1])c2)cc1; X7 = CN([C@@H](Cc1cccc(B2OC(C)(C)C(C)(C)O2)c1)C(=O)[*:2])[*:1]; X13 = COc1ccc(-c2cccc(C[C@@H](C(=O)[*:2])N(C)[*:1])c2)cc1; X3 = CN([C@@H](Cc1cccc(-c2ccc(Cl)cc2)c1)C(=O)[*:2])[*:1]; X8 = CN([C@@H](Cc1cccc(-c2ccc(Cl)nc2)c1)C(=O)[*:2])[*:1]; X10 = CCCCCC/C=C/c1cccc(C[C@@H](C(=O)[*:2])N(C)[*:1])c1; X6 = CN([C@@H](Cc1cccc(-c2ccccc2Cl)c1)C(=O)[*:2])[*:1]; X11 = CN([C@@H](Cc1ccc(-c2cccnc2)cc1)C(=O)[*:2])[*:1]; X14 = CN([C@@H](Cc1cccc(C2=CCCCC2)c1)C(=O)[*:2])[*:1]; X9 = CN([C@@H](Cc1cccc(-c2ccncc2)c1)C(=O)[*:2])[*:1]; NMePhe(3-Ph) = CN[C@@H](Cc1cccc(-c2ccccc2)c1)C(=O)O; X5 = CN([C@@H](Cc1cccc(B(O)O)c1)C(=O)[*:2])[*:1]; NMePhe(3-Br) = CN[C@@H](Cc1cccc(Br)c1)C(=O)O; NMePhe(3-I) = CN[C@@H](Cc1cccc(I)c1)C(=O)O; Hmp(2R,3S) = CC[C@H](C)[C@@H](O)C(=O)O; NMeVal(β-OH) = CN[C@H](C(=O)O)C(C)(C)O; NMeD = CN[C@@H](CC(=O)O)C(=O)O; NMeV = CN[C@H](C(=O)O)C(C)C
# Tests used:
# Format in all cases: functional
# [1] = system: Candida albicans; experiment: Antifungal activity against Candida albicans by broth dilution method
# [2] = system: Aspergillus fumigatus; experiment: Antifungal activity against Aspergillus fumigatus by broth dilution method
# [3] = Ratio of MIC for Aspergillus fumigatus to MIC for Candida albicans
Compound,MIC [1],MIC [2],Ratio [3],Activity [1]
"CC[C@H](C)[C@@H]1NC(=O)[C@@H]2CCCN2C(=O)[C@H](Cc2cccc(Br)c2)N(C)C(=O)[C@H](CC(=O)O)NC(=O)[C@H](C(C)C)N(C)C(=O)[C@@H]([C@@H](C)CC)OC(=O)[C@H](C(C)(C)O)N(C)C(=O)[C@H](CC(C)C)NC(=O)[C@H](C(C)C)N(C)C1=O (cyclo(D[NMePhe(3-Br)]PI[NMeV]L[NMeVal(β-OH)][Hmp(2R,3S)][NMeV]))",5 µg/mL,10 µg/mL,,
"CCCCCC/C=C/c1cccc(C[C@H]2C(=O)N3CCC[C@H]3C(=O)N[C@@H]([C@@H](C)CC)C(=O)N(C)[C@@H](C(C)C)C(=O)N[C@@H](CC(C)C)C(=O)N(C)[C@@H](C(C)(C)O)C(=O)O[C@H]([C@@H](C)CC)C(=O)N(C)[C@@H](C(C)C)C(=O)N[C@@H](Cc3ccccc3)C(=O)N2C)c1 (cyclo(F[X10]PI[NMeV]L[NMeVal(β-OH)][Hmp(2R,3S)][NMeV]))",,> 5 µg/mL,,
"CC[C@H](C)[C@@H]1NC(=O)[C@@H]2CCCN2C(=O)[C@H](Cc2cccc(-c3ccncc3)c2)N(C)C(=O)[C@H](Cc2ccccc2)NC(=O)[C@H](C(C)C)N(C)C(=O)[C@@H]([C@@H](C)CC)OC(=O)[C@H](C(C)(C)O)N(C)C(=O)[C@H](CC(C)C)NC(=O)[C@H](C(C)C)N(C)C1=O (cyclo(F[X9]PI[NMeV]L[NMeVal(β-OH)][Hmp(2R,3S)][NMeV]))",< 0.025 µg/mL,< 1.25 µg/mL,> 10,
"CC[C@H](C)[C@@H]1NC(=O)[C@@H]2CCCN2C(=O)[C@H](Cc2cccc(-c3ccc(Cl)cc3)c2)N(C)C(=O)[C@H](Cc2ccccc2)NC(=O)[C@H](C(C)C)N(C)C(=O)[C@@H]([C@@H](C)CC)OC(=O)[C@H](C(C)(C)O)N(C)C(=O)[C@H](CC(C)C)NC(=O)[C@H](C(C)C)N(C)C1=O (cyclo(F[X3]PI[NMeV]L[NMeVal(β-OH)][Hmp(2R,3S)][NMeV]))",< 0.5 µg/mL,< 2.5 µg/mL,> 10,
"CC[C@H](C)[C@@H]1NC(=O)[C@@H]2CCCN2C(=O)[C@H](Cc2cccc(-c3ccc(C(=O)NC)cc3)c2)N(C)C(=O)[C@H](Cc2ccccc2)NC(=O)[C@H](C(C)C)N(C)C(=O)[C@@H]([C@@H](C)CC)OC(=O)[C@H](C(C)(C)O)N(C)C(=O)[C@H](CC(C)C)NC(=O)[C@H](C(C)C)N(C)C1=O (cyclo(F[X15]PI[NMeV]L[NMeVal(β-OH)][Hmp(2R,3S)][NMeV]))",,> 5 µg/mL,,
"CC[C@H](C)[C@@H]1NC(=O)[C@@H]2CCCN2C(=O)[C@H](Cc2cccc(B3OC(C)(C)C(C)(C)O3)c2)N(C)C(=O)[C@H](Cc2ccccc2)NC(=O)[C@H](C(C)C)N(C)C(=O)[C@@H]([C@@H](C)CC)OC(=O)[C@H](C(C)(C)O)N(C)C(=O)[C@H](CC(C)C)NC(=O)[C@H](C(C)C)N(C)C1=O (cyclo(F[X7]PI[NMeV]L[NMeVal(β-OH)][Hmp(2R,3S)][NMeV]))",< 0.5 µg/mL,10 µg/mL,,
"CC[C@H](C)[C@@H]1NC(=O)[C@@H]2CCCN2C(=O)[C@H](Cc2cccc(-c3ccc(Cl)nc3)c2)N(C)C(=O)[C@H](Cc2ccccc2)NC(=O)[C@H](C(C)C)N(C)C(=O)[C@@H]([C@@H](C)CC)OC(=O)[C@H](C(C)(C)O)N(C)C(=O)[C@H](CC(C)C)NC(=O)[C@H](C(C)C)N(C)C1=O (cyclo(F[X8]PI[NMeV]L[NMeVal(β-OH)][Hmp(2R,3S)][NMeV]))",< 0.025 µg/mL,< 1.25 µg/mL,> 10,
"CC[C@H](C)[C@@H]1NC(=O)[C@@H]2CCCN2C(=O)[C@H](Cc2cccc(C3=CCCCC3)c2)N(C)C(=O)[C@H](Cc2ccccc2)NC(=O)[C@H](C(C)C)N(C)C(=O)[C@@H]([C@@H](C)CC)OC(=O)[C@H](C(C)(C)O)N(C)C(=O)[C@H](CC(C)C)NC(=O)[C@H](C(C)C)N(C)C1=O (cyclo(F[X14]PI[NMeV]L[NMeVal(β-OH)][Hmp(2R,3S)][NMeV]))",,> 5 µg/mL,,
"CC[C@H](C)[C@@H]1NC(=O)[C@@H]2CCCN2C(=O)[C@H](Cc2cccc(-c3ccc(OC)cc3)c2)N(C)C(=O)[C@H](Cc2ccccc2)NC(=O)[C@H](C(C)C)N(C)C(=O)[C@@H]([C@@H](C)CC)OC(=O)[C@H](C(C)(C)O)N(C)C(=O)[C@H](CC(C)C)NC(=O)[C@H](C(C)C)N(C)C1=O (cyclo(F[X13]PI[NMeV]L[NMeVal(β-OH)][Hmp(2R,3S)][NMeV]))",5 µg/mL,,,
"CC[C@H](C)[C@@H]1NC(=O)[C@@H]2CCCN2C(=O)[C@H](Cc2cccc(Br)c2)N(C)C(=O)[C@H](Cc2ccccc2)NC(=O)[C@H](C(C)C)N(C)C(=O)[C@@H]([C@@H](C)CC)OC(=O)[C@H](C(C)(C)O)N(C)C(=O)[C@H](CC(C)C)NC(=O)[C@H](C(C)C)N(C)C1=O (cyclo(F[NMePhe(3-Br)]PI[NMeV]L[NMeVal(β-OH)][Hmp(2R,3S)][NMeV]))",0.031 µg/mL,2.5 µg/mL,,
"CC[C@H](C)[C@@H]1NC(=O)[C@@H]2CCCN2C(=O)[C@H](Cc2cccc(-c3ccccc3)c2)N(C)C(=O)[C@H](Cc2ccccc2)NC(=O)[C@H](C(C)C)N(C)C(=O)[C@@H]([C@@H](C)CC)OC(=O)[C@H](C(C)(C)O)N(C)C(=O)[C@H](CC(C)C)NC(=O)[C@H](C(C)C)N(C)C1=O (cyclo(F[NMePhe(3-Ph)]PI[NMeV]L[NMeVal(β-OH)][Hmp(2R,3S)][NMeV]))",< 0.05 µg/mL,< 0.94 µg/mL,> 10,
"CC[C@H](C)[C@@H]1NC(=O)[C@@H]2CCCN2C(=O)[C@H](Cc2cccc(-c3ccc(NC(C)=O)cc3)c2)N(C)C(=O)[C@H](Cc2ccccc2)NC(=O)[C@H](C(C)C)N(C)C(=O)[C@@H]([C@@H](C)CC)OC(=O)[C@H](C(C)(C)O)N(C)C(=O)[C@H](CC(C)C)NC(=O)[C@H](C(C)C)N(C)C1=O (cyclo(F[X12]PI[NMeV]L[NMeVal(β-OH)][Hmp(2R,3S)][NMeV]))",,> 5 µg/mL,,
"CC[C@H](C)[C@@H]1NC(=O)[C@@H]2CCCN2C(=O)[C@H](Cc2cccc(-c3ccc(-c4ccccc4)cc3)c2)N(C)C(=O)[C@H](Cc2ccccc2)NC(=O)[C@H](C(C)C)N(C)C(=O)[C@@H]([C@@H](C)CC)OC(=O)[C@H](C(C)(C)O)N(C)C(=O)[C@H](CC(C)C)NC(=O)[C@H](C(C)C)N(C)C1=O (cyclo(F[X4]PI[NMeV]L[NMeVal(β-OH)][Hmp(2R,3S)][NMeV]))",< 5 µg/mL,> 5 µg/mL,,
"CC[C@H](C)[C@@H]1NC(=O)[C@@H]2CCCN2C(=O)[C@H](Cc2cccc(-c3ccccc3Cl)c2)N(C)C(=O)[C@H](Cc2ccccc2)NC(=O)[C@H](C(C)C)N(C)C(=O)[C@@H]([C@@H](C)CC)OC(=O)[C@H](C(C)(C)O)N(C)C(=O)[C@H](CC(C)C)NC(=O)[C@H](C(C)C)N(C)C1=O (cyclo(F[X6]PI[NMeV]L[NMeVal(β-OH)][Hmp(2R,3S)][NMeV]))",< 0.5 µg/mL,< 1.25 µg/mL,> 10,
"CC[C@H](C)[C@@H]1NC(=O)[C@@H]2CCCN2C(=O)[C@H](Cc2cccc(B(O)O)c2)N(C)C(=O)[C@H](Cc2ccccc2)NC(=O)[C@H](C(C)C)N(C)C(=O)[C@@H]([C@@H](C)CC)OC(=O)[C@H](C(C)(C)O)N(C)C(=O)[C@H](CC(C)C)NC(=O)[C@H](C(C)C)N(C)C1=O (cyclo(F[X5]PI[NMeV]L[NMeVal(β-OH)][Hmp(2R,3S)][NMeV]))",< 0.05 µg/mL,> 100 µg/mL,,
"CC[C@H](C)[C@@H]1NC(=O)[C@@H]2CCCN2C(=O)[C@H](CC(=O)O)N(C)C(=O)[C@H](CC(=O)O)NC(=O)[C@H](C(C)C)N(C)C(=O)[C@@H]([C@@H](C)CC)OC(=O)[C@H](C(C)(C)O)N(C)C(=O)[C@H](CC(C)C)NC(=O)[C@H](C(C)C)N(C)C1=O (cyclo(D[NMeD]PI[NMeV]L[NMeVal(β-OH)][Hmp(2R,3S)][NMeV]))",10 µg/mL,> 100 µg/mL,,
"CC[C@H](C)[C@@H]1NC(=O)[C@@H]2CCCN2C(=O)[C@H](Cc2cccc(I)c2)N(C)C(=O)[C@H](Cc2ccccc2)NC(=O)[C@H](C(C)C)N(C)C(=O)[C@@H]([C@@H](C)CC)OC(=O)[C@H](C(C)(C)O)N(C)C(=O)[C@H](CC(C)C)NC(=O)[C@H](C(C)C)N(C)C1=O (cyclo(F[NMePhe(3-I)]PI[NMeV]L[NMeVal(β-OH)][Hmp(2R,3S)][NMeV]))",2.5 µg/mL,> 5 µg/mL,,
"CC[C@H](C)[C@@H]1NC(=O)[C@@H]2CCCN2C(=O)[C@H](Cc2cccc(-c3cccc(-c4ccccc4)c3)c2)N(C)C(=O)[C@H](Cc2ccccc2)NC(=O)[C@H](C(C)C)N(C)C(=O)[C@@H]([C@@H](C)CC)OC(=O)[C@H](C(C)(C)O)N(C)C(=O)[C@H](CC(C)C)NC(=O)[C@H](C(C)C)N(C)C1=O (cyclo(F[X2]PI[NMeV]L[NMeVal(β-OH)][Hmp(2R,3S)][NMeV]))",< 5 µg/mL,> 5 µg/mL,,
"CC[C@H](C)[C@@H]1NC(=O)[C@@H]2CCCN2C(=O)[C@H](Cc2ccc(-c3cccnc3)cc2)N(C)C(=O)[C@H](Cc2ccccc2)NC(=O)[C@H](C(C)C)N(C)C(=O)[C@@H]([C@@H](C)CC)OC(=O)[C@H](C(C)(C)O)N(C)C(=O)[C@H](CC(C)C)NC(=O)[C@H](C(C)C)N(C)C1=O (cyclo(F[X11]PI[NMeV]L[NMeVal(β-OH)][Hmp(2R,3S)][NMeV]))",,< 2.5 µg/mL,,Active
